# Results as given in PMC7064328 (Environmental Health Perspectives, 2020).
# System: maternal liver
# Assay: Maternal liver histopathology (H&E)
# Assay type: in vivo, mouse (CD-1)
# Details: for CA, any severity: % / CA, any severity: N / CA, marked: % / CA, marked: N / CA, minimal to mild: % / CA, minimal to mild: N / CA, moderate: % / CA, moderate: N / Focal regions of classic necrosis: % / Focal regions of classic necrosis: N / Increase in cell death: % / Increase in cell death: N / Increase in mitotic figures: % / Increase in mitotic figures: N / Vacuolation, any severity: % / Vacuolation, any severity: N / Vacuolation, mild: % / Vacuolation, mild: N / Vacuolation, minimal: % / Vacuolation, minimal: N / Vacuolation, moderate: % / Vacuolation, moderate: N: maternal liver
# Description: From each uterus, first, viable embryos and their matched placentas were collected in succession within a horn and immediately snap frozen ( n=2–5 per litter ), and subsequent embryos were collected for growth measurements ( n=2–11 per litter ). Additional placentas were collected and placed in 4% paraformaldehyde (PFA) for histological analysis (Block 2 only). Amniotic fluid was collected by needle aspiration from litters euthanized at E11.5 and snap frozen in liquid nitrogen. Embryo livers were collected from litters euthanized at E17.5 and snap frozen in liquid nitrogen. Dam livers were weighed, a portion of the left lateral lobe was placed in 4% PFA for histology, and another portion of the same lobe was snap frozen in liquid nitrogen. A third liver section was obtained from Block 2 dams and fixed in McDowell and Trump’s fixative for electron microscopy (EM). Gross lesions were collected when observed and placed in 4% PFA for histology. Dam kidneys were removed, a cross section was prepared from the right kidney, a longitudinal section was prepared from the left kidney, and both sections were fixed in 4% PFA for histological analysis.
# Dam livers, kidneys, and placentas were trimmed and embedded by the NIEHS Mouse Embryo Phenotyping Core. Tissues collected at necropsy were fixed in 4% PFA for 72 h and paraffin embedded, and 5-μm sections were prepared and stained with hematoxylin and eosin (H&E). Pathology was evaluated and a pathology review conducted by S.A.E. Diplomate American College of Veterinary Pathologists (DACVP). Pathology reviews were conducted as an informed approach analysis [e.g., nonblinded analysis; see Sills et al. ([2019])]. Select tissue slides were scanned using the AT2 Scanner (Aperio). Images were then captured for publication using the ImageScope software; version 12.3.0.5056 (Aperio). Serum and urine obtained from dams in Block 2 were analyzed using the AU480 clinical chemistry analyzer (Beckman Coulter Inc.). Reagents and calibration standards used to measure alkaline phosphatase (ALP), alanine aminotransferase (ALT), aspartate aminotransferase (AST), blood urea nitrogen (BUN), serum creatinine, urine creatinine, glucose (Glu), total protein (TP), triglyceride (Trig), high-density lipoprotein (HDL), cholesterol (Chol), and albumin (ALB) were purchased from Beckman Coulter Inc. Reagents for sorbitol dehydrogenase (SDH), total bile acid (TBA), and micro-TP were purchased from Sekisui Diagnostics. The reagent used to measure low-density lipoprotein (LDL) was purchased form Diazyme Laboratories.
structure (smiles),measurement,setting,value
"N.O=C(O)C(F)(OC(F)(F)C(F)(F)C(F)(F)F)C(F)(F)F (centres unmarked) [GenX, ammonium 2,3,3,3-tetrafluoro-2-(heptafluoropropoxy)propanoate]",Incidence of livers with adverse outcomes including cytoplasmic alteration,"all dose groups, E11.5 and E17.5",100%
same,"CA, any severity: %","E11.5, 2 mg/kg/d",100%
same,"CA, any severity: N","E11.5, 2 mg/kg/d",5
same,"CA, marked: %","E11.5, 2 mg/kg/d",0%
same,"CA, marked: N","E11.5, 2 mg/kg/d",0
same,"CA, minimal to mild: %","E11.5, 2 mg/kg/d",100%
same,"CA, minimal to mild: N","E11.5, 2 mg/kg/d",5
same,"CA, moderate: %","E11.5, 2 mg/kg/d",0%
same,"CA, moderate: N","E11.5, 2 mg/kg/d",0
same,Focal regions of classic necrosis: %,"E11.5, 2 mg/kg/d",0%
same,Focal regions of classic necrosis: N,"E11.5, 2 mg/kg/d",0
same,Increase in cell death: %,"E11.5, 2 mg/kg/d",80%
same,Increase in cell death: N,"E11.5, 2 mg/kg/d",4
same,Increase in mitotic figures: %,"E11.5, 2 mg/kg/d",60%
same,Increase in mitotic figures: N,"E11.5, 2 mg/kg/d",3
same,"Vacuolation, any severity: %","E11.5, 2 mg/kg/d",0%
same,"Vacuolation, any severity: N","E11.5, 2 mg/kg/d",0
same,"Vacuolation, mild: %","E11.5, 2 mg/kg/d",0%
same,"Vacuolation, mild: N","E11.5, 2 mg/kg/d",0
same,"Vacuolation, minimal: %","E11.5, 2 mg/kg/d",0%
same,"Vacuolation, minimal: N","E11.5, 2 mg/kg/d",0
same,"Vacuolation, moderate: %","E11.5, 2 mg/kg/d",0%
same,"Vacuolation, moderate: N","E11.5, 2 mg/kg/d",0
same,"CA, any severity: %","E11.5, 10 mg/kg/d",100%
same,"CA, any severity: N","E11.5, 10 mg/kg/d",5
same,"CA, marked: %","E11.5, 10 mg/kg/d",60%
same,"CA, marked: N","E11.5, 10 mg/kg/d",3
same,"CA, minimal to mild: %","E11.5, 10 mg/kg/d",0%
same,"CA, minimal to mild: N","E11.5, 10 mg/kg/d",0
same,"CA, moderate: %","E11.5, 10 mg/kg/d",40%
same,"CA, moderate: N","E11.5, 10 mg/kg/d",2
same,Focal regions of classic necrosis: %,"E11.5, 10 mg/kg/d",20%
same,Focal regions of classic necrosis: N,"E11.5, 10 mg/kg/d",1
same,Increase in cell death: %,"E11.5, 10 mg/kg/d",60%
same,Increase in cell death: N,"E11.5, 10 mg/kg/d",3
same,Increase in mitotic figures: %,"E11.5, 10 mg/kg/d",80%
same,Increase in mitotic figures: N,"E11.5, 10 mg/kg/d",4
same,"Vacuolation, any severity: %","E11.5, 10 mg/kg/d",100%
same,"Vacuolation, any severity: N","E11.5, 10 mg/kg/d",5
same,"Vacuolation, mild: %","E11.5, 10 mg/kg/d",0%
same,"Vacuolation, mild: N","E11.5, 10 mg/kg/d",0
same,"Vacuolation, minimal: %","E11.5, 10 mg/kg/d",100%
same,"Vacuolation, minimal: N","E11.5, 10 mg/kg/d",5
same,"Vacuolation, moderate: %","E11.5, 10 mg/kg/d",0%
same,"Vacuolation, moderate: N","E11.5, 10 mg/kg/d",0
same,"CA, any severity: %","E17.5, 2 mg/kg/d",100%
same,"CA, any severity: N","E17.5, 2 mg/kg/d",5
same,"CA, marked: %","E17.5, 2 mg/kg/d",0%
same,"CA, marked: N","E17.5, 2 mg/kg/d",0
same,"CA, minimal to mild: %","E17.5, 2 mg/kg/d",40%
same,"CA, minimal to mild: N","E17.5, 2 mg/kg/d",2
same,"CA, moderate: %","E17.5, 2 mg/kg/d",60%
same,"CA, moderate: N","E17.5, 2 mg/kg/d",3
same,Focal regions of classic necrosis: %,"E17.5, 2 mg/kg/d",20%
same,Focal regions of classic necrosis: N,"E17.5, 2 mg/kg/d",1
same,Increase in cell death: %,"E17.5, 2 mg/kg/d",0%
same,Increase in cell death: N,"E17.5, 2 mg/kg/d",0
same,Increase in mitotic figures: %,"E17.5, 2 mg/kg/d",0%
same,Increase in mitotic figures: N,"E17.5, 2 mg/kg/d",0
same,"Vacuolation, any severity: %","E17.5, 2 mg/kg/d",0%
same,"Vacuolation, any severity: N","E17.5, 2 mg/kg/d",0
same,"Vacuolation, mild: %","E17.5, 2 mg/kg/d",0%
same,"Vacuolation, mild: N","E17.5, 2 mg/kg/d",0
same,"Vacuolation, minimal: %","E17.5, 2 mg/kg/d",0%
same,"Vacuolation, minimal: N","E17.5, 2 mg/kg/d",0
same,"Vacuolation, moderate: %","E17.5, 2 mg/kg/d",0%
same,"Vacuolation, moderate: N","E17.5, 2 mg/kg/d",0
same,"CA, any severity: %","E17.5, 10 mg/kg/d",100%
same,"CA, any severity: N","E17.5, 10 mg/kg/d",5
same,"CA, marked: %","E17.5, 10 mg/kg/d",100%
same,"CA, marked: N","E17.5, 10 mg/kg/d",5
same,"CA, minimal to mild: %","E17.5, 10 mg/kg/d",0%
same,"CA, minimal to mild: N","E17.5, 10 mg/kg/d",0
same,"CA, moderate: %","E17.5, 10 mg/kg/d",0%
same,"CA, moderate: N","E17.5, 10 mg/kg/d",0
same,Focal regions of classic necrosis: %,"E17.5, 10 mg/kg/d",20%
same,Focal regions of classic necrosis: N,"E17.5, 10 mg/kg/d",1
same,Increase in cell death: %,"E17.5, 10 mg/kg/d",100%
same,Increase in cell death: N,"E17.5, 10 mg/kg/d",5
same,Increase in mitotic figures: %,"E17.5, 10 mg/kg/d",0%
same,Increase in mitotic figures: N,"E17.5, 10 mg/kg/d",0
same,"Vacuolation, any severity: %","E17.5, 10 mg/kg/d",100%
same,"Vacuolation, any severity: N","E17.5, 10 mg/kg/d",5
same,"Vacuolation, mild: %","E17.5, 10 mg/kg/d",60%
same,"Vacuolation, mild: N","E17.5, 10 mg/kg/d",3
same,"Vacuolation, minimal: %","E17.5, 10 mg/kg/d",40%
same,"Vacuolation, minimal: N","E17.5, 10 mg/kg/d",2
same,"Vacuolation, moderate: %","E17.5, 10 mg/kg/d",0%
same,"Vacuolation, moderate: N","E17.5, 10 mg/kg/d",0
